# Patent US8367121B2, “Nutraceutical agent for attenuating the neurodegenerative process associated with Parkinson's disease” (Florida A & M University, priority 2005, dated 2013)
# Where two headings read alike, the source gives them in different places.
# Key:
# MPP+ toxicity = MPP+ toxicity in vitro (loss of ATP / cell death); format: cell-based; conditions: for protection against MPP+ toxicity: in vitro
# [1] = Reduce/chelate and complex iron; conditions: as demonstrated in our lab
# 6-OHDA toxicity [2] = assay: 6-OHDA toxicity in vitro; format: cell-based
# [3] = Non-enzymatic DA oxidation to melanized pigments in buffered non-acid solution exposed to atmosphere; conditions: neutral pH; data not published
# Text: 2. DA AUTOXIDATION—The second major route for DA oxidation is non-enzymatic autoxidation in the presence of H2O2, ROS and metals (Fe^+2, Cu^+2, and Mn^+2) (Montgomery et al., Toxicology. 1995 Mar. 31; 97(1-3):3-9; Sayre et al., 1999 Bio-inorganic Chemistry 3:220-225). Autoxidation of DA can render formation of 6-OHDA (a potent neurotoxin) and O2.^−, of which the later if in proximity to nitric oxide (NO) can react to form ONOO—. Peroxynitrite can then re-oxidize DA, deplete available reduced glutathione/ascorbate, incur a substantial loss of endogenous GSH-peroxidase function and destroy the natural ability of GSH to act as an antioxidant, inactivate toxic DA o-semiquinones or ONOO—(Blum et al., 2001; Antunes et al., Toxicology. 2005 Mar. 15; 208(2):207-12). Likewise, the neurological damage associated with PD corresponds to depletion of SNc GSH as consistently evidenced in various studies (Ebadi et al, Prog Neurobiol. 1996 January; 48(1):1-19) and a reduction of GSH (ie. γ-glutamylcysteine. synthetase inhibitor) renders SNc neurons extremely vulnerable to the toxic effects of MPTP and 6-OHDA (Bharath et al., Biochem Pharmacol. 2002 September; 64(5-6):1037-48). In contrast, administration of thiol antioxidants such as dithioreitol, GSH and NAC (which block the autoxidation of DA), prevent MPTP induced toxicity in mice (Annepu and Ravindranath, Neurosci Lett. 2000 Aug. 11; 289(3):209-12; Bahat-Stroomza et al., Eur J Neurosci. 2005 February; 21(3):637-46). For these reasons, the formulation will include substances that prevent non-enzymatic DA oxidation herein classified under “DA-AUTOXIDATION (−)”. The compounds chosen were based on their propensity to block DA oxidation to melanized pigments in buffered non-acid solution exposed to atmosphere and corresponding production of ROS upon exposure of O2 (data not published). Of approximately 100 food based compounds tested in our lab, the findings indicate a block of DA oxidation at neutral pH by PY, β-CAROTENE (*), NAC (*), GSH (*), VITAMIN C (*). […] The addition of ascorbic acid as a DA-AUTOXIDATION (−) should be limited given its negative counter-indication with iron and 6-OHDA (Mendez-Alvarez et al., Free Radic Biol Med. 2001 Oct. 15; 31(8):986-98). In contrast, ample concentration of thiol substances should be added to the formulation as they are non-toxic, attenuate pathological effects of 6-OHDA, ONOO— and block the formation of DA o-semiquinone neurotoxic radicals (Asanuma et al., Acta Med. Okayama 2004: 58 (5) 221-233).
# LDH = assay: Substrate for lactic acid dehydrogenase; format: biochemical
# Text: (§1) With that, overcoming the initial deficit imposed by PD toxins such as MPP+ are possible with non-glucose intermediates that are capable of sustaining ATP production through substrate level phosphorylation. These compounds should protect against cell death by MPP+, herein also classified under “ANAEROBIC (+)”. […] Agents capable of mediating positive effects on PK/LDH should in theory offset the metabolic vulnerability imposed by the rise in lactate/pyruvate, nicotinamide adenine dinucleotide (NAD)/nicotinamide adenine dinucleotide reduced (NADH) and NADP/NADPH ratios that occur during hypoglycemia and neurological damage (Auer RN. Metab Brain Dis. 2004 December; 19(3-4):169-75). For this reason, the first component and the base of this nutraceutical formulation are one or more of PYRUVIC ACID (*) (PY), […] ACID (SA)* and OXALOACETATE (*) (OA) as well as their corresponding molecular derivatives, analogues, esters or salts. […] On the other hand, PY can readily enter the brain, serve as a useful substrate for glycolysis, the Krebs cycle and the GABA shunt (Gonzalez et al., J Neurochem. 2005 October; 95(1):284-93) with capability to protect ergogenic failure associated with ischemic stroke and heart disease (Lee et al., J Neurosci. 2001 Oct. 15; 21(20):RC171; Hermann et al., Eur J Heart Fail. 2004 Mar. 1; 6(2):213-8).
# H2O2 toxicity = H2O2 toxicity in vitro; format: cell-based
# Text: as §1
# 6-OHDA toxicity [4] = conditions: Kabuto et al., Neurochem Res. 2005; cited from earlier work
# complex IV = assay: Mitochondrial complex IV function; format: biochemical
# complex II = assay: Mitochondrial complex II function; format: biochemical
# [5] = tested on: mitochondrial respiration; assay: Mitochondrial O2 consumption / respiration; format: biochemical
# complex I = assay: Mitochondrial complex I function
# [6] = Non-enzymatic H2O2 scavenging
compound,measurement,setting,value
"O=C(COP(=O)(O)O)[C@@H](O)[C@H](O)[C@H](O)COP(=O)(O)O [FRUCTOSE 1,6 BISPHOSPHATE]",protection against MPP+ toxicity,MPP+ toxicity,effective
Oc1ccc2c(c1)OCO2 [SESAMOL],reduce/chelate and complex iron,[1],most powerful
O=c1oc2c(O)c(O)cc3c(=O)oc4c(O)c(O)cc1c4c23 [ellagic acid],reduce/chelate and complex iron,[1],most powerful
O=c1c(O)c(-c2ccc(O)c(O)c2)oc2cc(O)cc(O)c12 [quercetin],reduce/chelate and complex iron,[1],most powerful
O=C(CO)[C@@H](O)[C@H](O)[C@H](O)CO [FRUCTOSE],protection against MPP+ toxicity,MPP+ toxicity,effective
N[C@@H](Cc1c[nH]c2ccccc12)C(=O)O [TRYPTOPHAN],protection against MPP+ toxicity,MPP+ toxicity,effective
O=C(O)/C=C/c1ccc(O)c(O)c1 [caffeic acid],reduce/chelate and complex iron,[1],most powerful
Oc1ccc(C=Cc2cc(O)cc(O)c2)cc1 [RESVERATROL],protection against MPP+ toxicity,MPP+ toxicity,effective
N[C@@H](Cc1c[nH]cn1)C(=O)O [histidine],protection against / antagonism of 6-OHDA toxicity,6-OHDA toxicity [2],mild protection
"O=C1O[C@H]([C@@H](O)CO)C(O)=C1O [VITAMIN C, ascorbic acid]",block of DA oxidation,[3],block
"CC(=O)C(=O)O [PY, PYRUVIC ACID]",protection against MPP+ toxicity,MPP+ toxicity,protect
same,protection against / antagonism of 6-OHDA toxicity,6-OHDA toxicity [2],protect
same,protection against / antagonism of 6-OHDA toxicity,6-OHDA toxicity [2]; listed as pyruvate,directly antagonize
same,block of DA oxidation,[3],block
same,substrates for LDH,LDH,exceptional substrates for LDH
same,protection against H2O2 toxicity,H2O2 toxicity,protect
"O=C(O[C@@H]1Cc2c(O)cc(O)cc2O[C@@H]1c1cc(O)c(O)c(O)c1)c1cc(O)c(O)c(O)c1 [EGCG, (−)-Epigallocatechin-3-gallate]",protection against MPP+ toxicity,MPP+ toxicity,effective
O=c1c(O)c(-c2ccc(O)cc2O)oc2cc(O)cc(O)c12 [MORIN],reduce/chelate and complex iron,[1],most powerful
"CC(=O)N[C@@H](CS)C(=O)O [NAC, N-acetyl-L-cysteine]",protection against / antagonism of 6-OHDA toxicity,6-OHDA toxicity [2],directly antagonize
same,block of DA oxidation,[3],block
"O=C(O)CCC(=O)O [SA, SUCCINIC ACID]",fuel anaerobic glycolysis in the presence of MPP+,MPP+ toxicity; data not published,great propensity
COc1cc(CCC(C)=O)ccc1O [zingerone],antagonism of 6-OHDA toxicity,6-OHDA toxicity [4],directly antagonize
NARINGEN,protection against MPP+ toxicity,MPP+ toxicity,effective
"CN1C(C(=O)Nc2ccccn2)=C(O)c2ccccc2S1(=O)=O [PIROXICAM, reference compound]",protection against MPP+ toxicity,MPP+ toxicity,effective
CC1=CC(=O)C(C(C)C)=CC1=O [THYMOQUINONE],protection against MPP+ toxicity,MPP+ toxicity,effective
COc1cc(/C=C/C(=O)O)ccc1O [FERULIC ACID],reduce/chelate and complex iron,[1],most powerful
"Cc1cc2nc3c(=O)[nH]c(=O)nc-3n(C[C@H](O)[C@H](O)[C@H](O)CO)c2cc1C [riboflavin, RIBOFLAVIN]",protection against MPP+ toxicity,MPP+ toxicity,exacerbating
"N[C@@H](CCC(=O)N[C@@H](CS)C(=O)NCC(=O)O)C(=O)O [GSH, reduced glutathione]",protection against / antagonism of 6-OHDA toxicity,6-OHDA toxicity [2],directly antagonize
same,block of DA oxidation,[3],block
COC1=C(OC)C(=O)C(C/C=C(\C)CC/C=C(\C)CC/C=C(\C)CC/C=C(\C)CC/C=C(\C)CC/C=C(\C)CC/C=C(\C)CC/C=C(\C)CC/C=C(\C)CCC=C(C)C)=C(C)C1=O [coenzyme Q10],effects on complex IV function,complex IV,little to no effects
same,protection against MPP+ toxicity,MPP+ toxicity,no effects
same,potentiation of complex II function,complex II,mild potentiator
same,effects on mitochondrial O2 consumption / mitochondrial respiration as a whole,[5],no effects
same,effects on complex I function,complex I,little to no effects
CC(=O)O[C@H](CC(=O)[O-])C[N+](C)(C)C [ACETYL-L-CARNITINE],protection against MPP+ toxicity,MPP+ toxicity,effective
Vitamin E,block of DA oxidation,[3],lack of effects
same,scavenge H2O2,[6],lack of effects
"CYTOCHROME C: cytochrome C, combined with an H2O2 antioxidant to detoxify 6-OHDA",protection against / antagonism of 6-OHDA toxicity,6-OHDA toxicity [2],directly antagonize
C=C(OP(=O)(O)O)C(=O)O [PHOSPHOENOLPYRUVATE],protection against MPP+ toxicity,MPP+ toxicity,effective
CC1=C(/C=C/C(C)=C/C=C/C(C)=C/C=C/C=C(C)/C=C/C=C(C)/C=C/C2=C(C)CCCC2(C)C)C(C)(C)CCC1 [β-CAROTENE],block of DA oxidation,[3],block
same,scavenge H2O2,[6],scavenge
"NC(=O)C1=CN([C@@H]2O[C@H](COP(=O)(O)OP(=O)(O)OC[C@H]3O[C@@H](n4cnc5c(N)ncnc54)[C@H](O)[C@@H]3O)[C@@H](O)[C@H]2O)C=CC1 [NADH, reduced nicotinamide adenine dinucleotide]",protection against MPP+ toxicity,MPP+ toxicity,protect
